Usually Kd stands for the concentration at which binding is half-saturated.

This assay concerns the target T1, recombinant human TCTP (Homo sapiens, UniProt P13693).
T1 construct: gene TPT1; recombinant; RED-NHS fluorescently labelled for MST
T1 sequence (P13693 1-172): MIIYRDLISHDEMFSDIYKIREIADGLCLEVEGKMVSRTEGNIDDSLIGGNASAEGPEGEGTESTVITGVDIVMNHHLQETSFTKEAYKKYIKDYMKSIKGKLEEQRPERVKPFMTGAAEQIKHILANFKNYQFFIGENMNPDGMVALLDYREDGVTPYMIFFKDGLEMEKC
Briefly: microscale thermophoresis. The assay is classed as binding. On the technique in general: MST reads how a fluorescent partner responds to local heating, with and without ligand.

Each structure is given as a SMILES string.

Regarding `CN[C@H]1CC[C@@H](c2ccc(Cl)c(Cl)c2)c2ccccc21` [sertraline], the Kd turned out to be 15.4 ± 1.4 µM. Consider `CSc1ccc2c(c1)N(CCC1CCCCN1C)c1ccccc1S2` (centres unmarked) [thioridazine], for which the equilibrium dissociation constant (Kd) was determined as 5.39 ± 2.1 µM.

Values taken from publication PMC11014985, “TCTP regulates genotoxic stress and tumorigenicity via intercellular vesicular signaling” (EMBO Reports, 2024).
